Reference: a melting point compilation (Tetko et al.; mined from patent text by program, amines drawn as free bases though some values may be those of a salt)
Residues, ends and D or L forms follow the SMILES beside them. *: point of attachment. Tos = Cc1ccc(S(=O)(=O)*)cc1

Row | melting point [°C] | Structure (SMILES)
1 | 199 | O=[PH](c1ccc(N2CCCC2)cc1)c1ccc(N2CCCC2)cc1
2 | 200 to 202 | O=C(NCc1ccc(Br)cc1)c1cn(N2CCOCC2)c2ccc(CN3CCOCC3)cc2c1=O
3 | 171 to 172 | CCOCCNCCOc1ccc(NC(=O)c2ccccc2NS(C)(=O)=O)cc1
4 | 183 to 185 | c1ccc(-c2cn3c(n2)sc2cnccc23)cc1
5 | 85 to 95 | CCCC=Cc1c(C(C)C)cc(C(C)C)c(CO)c1-c1ccc(F)cc1
6 | 178 to 180 | Cn1cc(C(=O)Nc2cnccc2-c2ccc(Cl)cc2)c(C(F)(F)F)c1
7 | 215 to 217 | O=C(O)c1cnc(-c2ccccc2)c2ccccc12
8 | > 300 | CN(C)CC1CCCCN1C(=O)c1ccc(-c2[nH]nc3c2C(=O)c2c(NC(=O)NN4CCOCC4)cccc2-3)s1 (stereo unspecified)
9 | 120 to 121 | CCC(CC)C(NS(=O)(=O)c1ccc(Br)s1)c1ccnn1-c1ccccc1 (stereo unspecified)
10 | 192 to 193 | CN1CCN(c2cccc3c2C[C@H](NC(=O)c2ccc(OC(F)(F)F)cc2)CO3)CC1
11 | 140 to 151 | CC(C(=O)c1c(O)c2cccnc2n(-c2ccccc2)c1=O)c1ccccc1 (stereo unspecified)
12 | 80 | COC(=O)c1ccncc1SCc1ccccc1
13 | 223 to 224 | O=Cc1cnc(Nc2n[nH]c3ccc(-c4ncccc4Cl)cc23)s1
14 | 152 to 153 | Cc1nccn1-c1nc(-c2ccc(Cl)cc2)c(CCCN2C(=O)COC2=O)o1
15 | 185 to 188 | CCCCCS(=O)(=O)NC(=O)c1ccc2[nH]c(C)c(Cc3ccc(SC(C)(C)C)cc3Cl)c2c1
16 | 226 to 229 | O=C(NC(=O)c1c(F)cccc1F)Nc1ccc(Cl)cn1
17 | 260 | COc1ccc(N2CCN(c3ccc(-n4c(C)nnc4S)cc3)CC2)cc1
18 | 178 to 179 | CC(C)OC1CCC(=O)N1S(=O)(=O)C=Cc1ccc([N+](=O)[O-])cc1 (stereo unspecified)
19 | 202 | O=C(O)Cc1cc(C=Cc2ccccc2)ccc1O
20 | 153 to 155 | Cc1ccc(S(=O)(=O)N2CCC[C@H]2C(=O)N[C@@H](CC(=O)O)C(=O)O)cc1 (Tos-Pro-Asp-OH)
21 | 241 to 242 | FC(F)(F)c1nnc2nc(-c3ccccc3)c3cc(Cl)ccc3n12
22 | 219 to 221 | O=C1CC[C@H](N2C(=O)c3cccc(CNC(=O)C4CC4)c3C2=O)C(=O)N1
23 | 348 to 349 | O=c1[nH]c(=Cc2ccc3ccccc3n2)c(=O)[nH]c1=Cc1ccc(Cl)cc1

Row | melting point [°C] | Structure (SMILES)
24 | 128 to 130 | Cc1ccc(C(=O)NCCCCOc2ccc(-n3ccnc3)cc2)cc1
25 | 210 to 214 | CN(C)n1cc(C(=O)NCc2ccc(Cl)cc2)c(=O)c2cc(C#CCO)ccc21
26 | 165 | COC(=O)NNC(=O)C=Cc1ccccc1
27 | 193 to 195 | O=C1COC(c2ccccc2)c2ccccc2N1 (stereo unspecified)
28 | 110 to 113 | CC(=O)N1CCc2ccc(C(=O)c3ccccc3)cc2C1
29 | 173 to 174 | O=C(N[C@@H](Cc1ccc2ccccc2c1)[C@H](O)CCl)OCc1ccccc1
30 | > 250 | O=CNc1c2c(nc3ccccc13)CCc1cnn(-c3ccccc3)c1-2
31 | 78 to 81 | CCCSCC(=O)NNC(=O)N1Cc2ccccc2Oc2ccc(Cl)cc21
32 | 173 | CC(=O)Oc1ccc2c(c1Cl)Sc1ccccc1N2
33 | 100 to 102 | CCCCO/N=C(\C(=O)On1nnc2ccccc21)c1csc(NC(c2ccccc2)(c2ccccc2)c2ccccc2)n1
34 | 149 to 150 | O=c1c(N2CCNCC2)nc2ccccc2n1-c1cccc(F)c1
35 | 188 to 190 | CC(=O)NC[C@H]1CN(c2ccc(C3=CCCN(C(=O)CO)C3)c(F)c2)C(=O)O1
36 | 140 | COc1ccc2ccc(OS(=O)(=O)C(F)(F)F)c(-c3nnc(Cl)c4ccccc34)c2c1
37 | 133 to 135 | O=C1NC(=O)[C@@]2(C[C@@H](C(=O)NCCN3CCN(CC=Cc4ccccc4)CC3)Oc3ccc(F)cc32)N1
38 | 156 to 157 | COC(=O)CCc1oc(=O)[nH]c1-c1ccc(C(F)(F)F)cc1
39 | 108 to 109 | CC(C)=CCOc1ccc(C(=O)C=Cc2ccc(C)cc2)c(O)c1
40 | 155 to 157 | Cc1nc(CC2OC(COC(=O)c3ccccc3)C(O)C2O)n2nc(Cl)ccc12 (stereo unspecified)
41 | 160 to 161 | O=c1nc(-c2ccccc2)cnn1-c1cc(Cl)cc(Cl)c1
42 | 210 to 212 | Cc1cn(C[C@H]2CN(c3ccc(-c4ccc(C#N)nc4)c(F)c3)C(=O)O2)nn1
43 | 198 to 200 | CC[C@@]12C[C@H](O)[C@](O)(c3c(F)cccc3F)C[C@H]1CCc1cc(O)ccc12
44 | > 250 | O=C(O)c1cc(Br)c2ccccn2c1=O
45 | 85 to 89 | CCCCN1CCC(CCC(=O)c2ccc(N)nc2OC)CC1

Second part, the compound before the results:

Row | Structure (SMILES) | melting point [°C]
46 | COc1cc(OC)c(C(=O)CC(=O)c2cc(OC)c(OC)c(OC)c2)cc1OC | 154 to 156
47 | CSc1nc2cc(Cl)c(Cl)cc2n1C | 110
48 | Cc1c(N)ccc2c1C(=O)NS2(=O)=O | 272 to 273
49 | COc1ccc(CC(=O)O)c(C)c1OC | 102 to 104
50 | Cc1ccc(Cl)c(OCC(O)CNCCNC(=O)NCCCO[N+](=O)[O-])c1 (stereo unspecified) | 109 to 111
51 | CC(C)(C)c1cc(SCCC=O)cc(C(C)(C)C)c1O | 64 to 65
52 | COC(=O)c1ccc(C(=O)c2cccnc2)cc1 | 144 to 146
53 | Cc1c(C(=O)Nc2ccc(Cl)c([N+](=O)[O-])c2)cnn1-c1ccc(Cl)cc1 | 221 to 225
54 | CCC(COC)Nc1nc(C)nc2c1nnn2-c1ccc(C(C)C)cc1Br (stereo unspecified) | 132 to 134
55 | COc1cc(C(=O)N2CCC(C(=O)C3CCCCC3)CC2)c([N+](=O)[O-])cc1OC | 120 to 125
56 | NC(N)=Nc1nc(-c2cccc(CO)n2)cs1 | 229
57 | COc1ccc2nccc(C(O)CCC3CCNCC3)c2c1 (stereo unspecified) | 154
58 | COc1cnn(CN(C(=O)CCl)c2c(C)cccc2C)c1 | 115 to 116
59 | C=C(Cl)CS(=O)(=O)NC(=O)c1nc(OC)cc(OC)n1 | 125 to 130
60 | c1ccc2c(c1)NCCc1nncn1-2 | 162 to 165
61 | O=C(O)CCC(O)c1ccc(-c2ccc(Cl)cc2)cc1 (stereo unspecified) | 134 to 135
62 | COc1ccc(C)cc1OCCO | 42 to 43
63 | CCOC(=O)c1cnoc1-c1ccc(C(F)(F)F)cc1 | 42 to 44
64 | CSc1nnc(Sc2ncnc3c(C)csc23)s1 | 163 to 166
65 | COc1ccc(C(=O)[C@H]2CC=CC[C@H]2C(=O)O)cc1OC (relative stereo) | 110 to 112
66 | COc1cc(CO)c(OC)c2ccccc12 | 63 to 66

Row | Structure (SMILES) | melting point [°C]
67 | CC(CC[Si](CCC(C)[N+](=O)[O-])(c1ccccc1)c1ccccc1)[N+](=O)[O-] (stereo unspecified) | 84 to 85
68 | Cc1ccnc2c1nc(C)n2-c1ccccc1 | 117 to 119
69 | COc1ccc(C2=CCC(C#N)CC2)c2c1OCCO2 (stereo unspecified) | 79
70 | NC(=O)CCCCC1CCCCC1 | 121 to 122
71 | CCCc1c(OCCCCCC(=O)c2cc(C)c(OC)c(OC)c2C)ccc(C(=O)O)c1O | 92 to 94
72 | N#Cc1ccc(OCc2ccc(CCc3ccncc3)cc2)cc1 | 139 to 140
73 | NCCCc1c[nH]c2ccc3c(=O)[nH]ccc3c12 | 225 to 230
74 | CC(C)(C)OC(=O)N[C@H]1CC[C@H](CCOS(C)(=O)=O)CC1 | 116
75 | COCOc1c(NC(=O)NCc2cccnc2)cc(OC)cc1C(C)(C)C | 108 to 109
76 | O=[N+]([O-])c1ccc(Cn2cncn2)cc1 | 98 to 100
77 | Cc1cc(C2=NN(C(=S)Cl)[C@H](C)Cc3cc4c(cc32)OCO4)ccc1[N+](=O)[O-] | 193 to 196
78 | CCCOc1ccc(-c2ncc(C#N)c(Cl)n2)cc1 | 193 to 194
79 | O=C(O)CCC(=O)c1ccc(Br)c(S(=O)(=O)Cl)c1 | 183 to 185
80 | O=C1O[C@@H]2C[C@@]1(O)CC[C@H]2O | 212 to 214
81 | COCC1CC2CCC13CN(CC1CC1)CCC31c3cccc(O)c3OC21 (stereo unspecified) | 128 to 129
82 | CN(C)CCSc1cc(NC(=O)OC(C)(C)C)c([N+](=O)[O-])cc1I | 144
83 | COc1ccc(S(=O)(=O)N(CC(=O)O)CC(=O)O)cc1 | 177 to 178
84 | CCn1nc2oc(CO)c(C)c2c1C | 124 to 126
85 | Cc1cc(C)cc(Sc2c(C)c[nH]c(=O)c2N)c1 | 208 to 210
86 | CCn1ncc(C(=O)c2ccc(S(C)(=O)=O)c(OCCOC)c2Cl)c1O | 159 to 160
87 | CC(=O)OC1CC2CCC3C(CCC4(C)C(C(C)=O)CCC34)C2(C)CC1Br (stereo unspecified) | 142 to 146

Row | Structure (SMILES) | melting point [°C]
88 | O=[N+]([O-])c1ccc(SCCCCl)cc1 | 50 to 52
89 | CC(C#N)c1cccc(C(=O)c2cc3sccc3s2)c1 (stereo unspecified) | 75
90 | CCCCCC(=S)SCCC | 55 to 56
91 | CCOC(=O)c1cc(Cl)c(OCCCc2cc(C)no2)c(Cl)c1 | 49 to 50
92 | Cc1cc2c(NCCc3cccc(C(F)(F)F)c3)ncnc2o1 | 119
93 | CCN(CC)C(C)CN1CCc2c(c(=O)oc3cc(C)c(Cl)cc23)C1 (stereo unspecified) | 78 to 80
94 | CCOC(=O)c1nn(-c2ccc(C)cc2)nc1C | 47 to 48
95 | CC(=O)OCC(=O)C1(O)CCC2C3CCC4=CC(=O)C=CC4(C)C3C(O[Si](C)(C)C)CC21C (stereo unspecified) | 180 to 184
96 | CCCCN(C(=O)c1cc(C(C)(C)C)c(O)c(C(C)(C)C)c1)C1CC(C)(C)N(OC(C)=O)C(C)(C)C1 | 161 to 164
97 | CCN1c2ccccc2CC1CNC(=N)N (stereo unspecified) | 199
98 | COc1ccc(Nc2nc(Nc3ccc(OC)c(Cl)c3)nc(OCC3CCCCC3)n2)cc1Cl | 188
99 | CC(C)N(C(=O)CN1C(=O)CC(=O)N(c2ccccc2)c2ccccc21)c1ccccc1 | 199 to 200
100 | COC(=O)/C=C/c1cc([N+](=O)[O-])cn1C | 146 to 147
101 | O=C(O)c1[nH]c(=O)n2c1CN=C(c1ccccc1Cl)c1cc(Cl)ccc1-2 | 236 to 238
102 | O=C1c2c(Br)ccc(Br)c2C(=O)N1CC(F)(F)C(F)(F)C(F)(F)F | 165
103 | COc1ccc(CSC2(C(=O)O)CCCCC2)cc1 | 98
104 | O=C1OC(O)c2c1cccc2[N+](=O)[O-] (stereo unspecified) | 153 to 156
105 | COC(=O)c1ncc[nH]1 | 187 to 188
106 | O=[N+]([O-])CS(=O)(=O)c1ccc(CO)cc1 | 73 to 75
